Source: ChEMBL document CHEMBL3792309, “Seeking potent anti-tubercular agents: Design, synthesis, anti-tubercular activity and docking study of various ((triazoles/indole)-piperazin-1-yl/1,4-diazepan-1-yl)benzo[d]isoxazole derivatives” (Bioorg Med Chem Lett, 2016)
Values after ≈ are worked out from the molar mass of the structure shown.

Assays:
[1] = test system: Mycobacterium tuberculosis; test: Antimicrobial activity against Mycobacterium tuberculosis H37Rv by classical test tube method; type: functional
[2] = test system: Mycobacterium tuberculosis; test: Antimicrobial activity against p-aminosalicylic acid/isonicotinic acid hydrazide/etambutol/rifampicin sensitive Mycobacterium tuberculosis Spec. 192 by classical test tube method; type: functional
[3] = Cytotoxicity against mouse RAW264.7 cells assessed as inhibition of cell viability at 96.13 uM after 72 hrs by CellTiter 96 non radioactive cell proliferation assay; type: cell-based
[4] = test system: RAW264.7; test: Cytotoxicity against mouse RAW264.7 cells assessed as inhibition of cell viability after 72 hrs by CellTiter 96 non radioactive cell proliferation assay; type: cell-based; details: RAW264.7, 72 h
[5] = Selectivity index, ratio of IC50 for mouse RAW264.7 cells to MIC for Mycobacterium tuberculosis H37Rv; type: toxicity; details: read-out: Selectivity Index
[6] = test system: Mycobacterium tuberculosis; test: Antimicrobial activity against Mycobacterium tuberculosis H37Rv assessed as growth inhibition at 257.59 uM by classical test tube method; type: functional; details: read-out: GI
[7] = Cytotoxicity against mouse RAW264.7 cells assessed as inhibition of cell viability at 98.8 uM after 72 hrs by CellTiter 96 non radioactive cell proliferation assay; type: cell-based
[8] = Cytotoxicity against mouse RAW264.7 cells assessed as inhibition of cell viability at 113.07 uM after 72 hrs by CellTiter 96 non radioactive cell proliferation assay; type: cell-based
[9] = Cytotoxicity against mouse RAW264.7 cells assessed as inhibition of cell viability at 116.78 uM after 72 hrs by CellTiter 96 non radioactive cell proliferation assay; type: cell-based

Compound	MIC [1] [µM]	MIC [2] [µM]	other results
Clc1ccc2c(N3CCN(Cc4cn(-c5ccc(Br)cc5)nn4)CC3)noc2c1	> 200	> 200	–
O=C(CCCc1c[nH]c2ccccc12)N1CCCN(c2noc3ccccc23)CC1	> 200	> 200	–
O=C(CCc1c[nH]c2ccccc12)N1CCN(c2noc3cc(Cl)ccc23)CC1	> 200	> 200	–
Brc1ccc(-n2cc(CN3CCCN(c4noc5ccccc45)CC3)nn2)cc1	> 200	> 200	–
O=C(Cc1c[nH]c2ccccc12)N1CCN(c2noc3cc(Cl)ccc23)CC1	127 (≈ 50.1 µg/mL)	127 (≈ 50.1 µg/mL)	–
O=C(Cc1c[nH]c2ccccc12)N1CCCN(c2noc3ccccc23)CC1	134 (≈ 50 µg/mL)	134 (≈ 50 µg/mL)	–
O=[N+]([O-])c1ccc(-n2cc(CN3CCCN(c4noc5ccccc45)CC3)nn2)cc1	> 200	> 200	–
CCc1ccc(-n2cc(CN3CCN(c4noc5cc(Cl)ccc45)CC3)nn2)cc1	> 200	> 200	–
NNC(=O)c1ccncc1 [ISONIAZID]	91.1 (≈ 12.5 µg/mL)	91.1 (≈ 12.5 µg/mL)	–
COc1ccc(-n2cc(CN3CCCN(c4noc5ccccc45)CC3)nn2)cc1	> 200	> 200	–
O=C(CCCc1c[nH]c2ccccc12)N1CCN(c2noc3cc(Cl)ccc23)CC1	> 200	> 200	–
Clc1ccc(-n2cc(CN3CCCN(c4noc5ccccc45)CC3)nn2)cc1	> 200	> 200	–
FC(F)(F)c1cc(-n2cc(CN3CCCN(c4noc5ccccc45)CC3)nn2)ccc1Br	24 (≈ 12.5 µg/mL)	24 (≈ 12.5 µg/mL)	inhibition at 72 h, 96.13 µM [3]: 26.5%; IC50 [4]: 181 µM; selectivity ratio [5]: 7.54
COc1ccc(-n2cc(CN3CCN(c4noc5ccccc45)CC3)nn2)cc1	> 200	> 200	–
Fc1ccc(-n2cc(CN3CCN(c4noc5cc(Cl)ccc45)CC3)nn2)cc1	121 (≈ 50.1 µg/mL)	121 (≈ 50.1 µg/mL)	–
Clc1ccc(-n2cc(CN3CCN(c4noc5cc(Cl)ccc45)CC3)nn2)cc1	> 200	> 200	–
Brc1ccc(-n2cc(CN3CCN(c4noc5ccccc45)CC3)nn2)cc1	> 200	> 200	–
C#CCN1CCN(c2noc3cc(Cl)ccc23)CC1	182 (≈ 50.1 µg/mL)	182 (≈ 50.1 µg/mL)	–
O=[N+]([O-])c1ccc(-n2cc(CN3CCN(c4noc5ccccc45)CC3)nn2)cc1	> 200	> 200	–
CCc1ccc(-n2cc(CN3CCN(c4noc5ccccc45)CC3)nn2)cc1	> 200	> 200	inhibition of growth at 257.59 µM [6]: 99%

Compound	MIC [1] [µM]	MIC [2] [µM]	other results
O=C(CCc1c[nH]c2ccccc12)N1CCCN(c2noc3ccccc23)CC1	> 200	> 200	–
C#CCN1CCCN(c2noc3ccccc23)CC1	196 (≈ 50 µg/mL)	196 (≈ 50 µg/mL)	–
Clc1cccc(-n2cc(CN3CCCN(c4noc5ccccc45)CC3)nn2)c1	122 (≈ 50.1 µg/mL)	122 (≈ 50.1 µg/mL)	–
COc1cccc(-n2cc(CN3CCCN(c4noc5ccccc45)CC3)nn2)c1	> 200	> 200	–
Clc1ccc(-n2cc(CN3CCN(c4noc5ccccc45)CC3)nn2)cc1	> 200	> 200	–
Fc1ccc(-n2cc(CN3CCN(c4noc5ccccc45)CC3)nn2)cc1	132 (≈ 50 µg/mL)	132 (≈ 50 µg/mL)	–
COc1ccc(-n2cc(CN3CCN(c4noc5cc(Cl)ccc45)CC3)nn2)cc1	118 (≈ 50.1 µg/mL)	118 (≈ 50.1 µg/mL)	–
O=[N+]([O-])c1ccc(-n2cc(CN3CCN(c4noc5cc(Cl)ccc45)CC3)nn2)cc1	> 200	> 200	–
O=C(CCCc1c[nH]c2ccccc12)N1CCN(c2noc3ccccc23)CC1	> 200	> 200	–
CCc1ccc(-n2cc(CN3CCCN(c4noc5ccccc45)CC3)nn2)cc1	> 200	> 200	–
FC(F)(F)c1cc(-n2cc(CN3CCN(c4noc5ccccc45)CC3)nn2)ccc1Br	6.16 (≈ 3.13 µg/mL)	6.16 (≈ 3.13 µg/mL)	IC50 [4]: 223 µM; selectivity ratio [5]: 36.1; inhibition at 72 h, 98.8 µM [7]: 22.2%
O=C(CCc1c[nH]c2ccccc12)N1CCN(c2noc3ccccc23)CC1	> 200	> 200	–
O=C(Cc1c[nH]c2ccccc12)N1CCN(c2noc3ccccc23)CC1	> 200	> 200	–
FC(F)(F)c1cccc(-n2cc(CN3CCCN(c4noc5ccccc45)CC3)nn2)c1	28.3 (≈ 12.5 µg/mL)	28.3 (≈ 12.5 µg/mL)	inhibition at 72 h, 113.07 µM [8]: 31.8%; IC50 [4]: 178 µM; selectivity ratio [5]: 6.29
Fc1ccc(-n2cc(CN3CCCN(c4noc5ccccc45)CC3)nn2)cc1	127 (≈ 50 µg/mL)	127 (≈ 50 µg/mL)	–
C#CCN1CCN(c2noc3ccccc23)CC1	> 200	> 200	–
Clc1cccc(-n2cc(CN3CCN(c4noc5ccccc45)CC3)nn2)c1	63.4 (≈ 25 µg/mL)	63.4 (≈ 25 µg/mL)	–
COc1cccc(-n2cc(CN3CCN(c4noc5ccccc45)CC3)nn2)c1	128 (≈ 50 µg/mL)	128 (≈ 50 µg/mL)	–
FC(F)(F)c1cccc(-n2cc(CN3CCN(c4noc5ccccc45)CC3)nn2)c1	29.2 (≈ 12.5 µg/mL)	29.2 (≈ 12.5 µg/mL)	inhibition at 72 h, 116.78 µM [9]: 19.2%; IC50 [4]: 305 µM; selectivity ratio [5]: 10.4
